The text below walks through data of patent EP4019580A1, “REDUCTION OF FLUORINATED ACID IN FLUOROPOLYMERS” (3M Innovative Properties Company, priority 2020, dated 2022).

Data set [1] is described as follows: Cryogenic grinding of crystalline perfluorinated polymers on the Spex mill, MeOH extraction and LC/MS determination of perfluorinated carboxylic acids. The format is physicochemical. Particulars: 10 wt.-% BHT versus no radical scavenger. The source says:
(§1) The general procedures described in "3M Standard Method for PFAS in Articles of Commerce, Edition 1, 02 June 2020", including the test and analytical equipment, was followed. The disclosure of this document is incorporated herein by reference in its entirety. In particular, reference is made with regard to the experimental and analytical setup and methods used in the present disclosure to the chapter "Part 3: Instrumental Analysis", 3.1.1 "Analytical Equipment and Materials" as well as 3.1.2 "HPLC Conditions (exemplary)".
(§2) The submitted samples were dissolved in methanol prior to analysis. Standard solutions were prepared from an aqueous solution of Adona that was determined to have a concentration of 28.36% by NMR.
In this study the inhibition effect of radical scavengers on the generation of perfluorinated carboxylic acids during cryogenic grinding of crystalline fluoropolymers was investigated. The polymers were grinded on a Spex or Retsch mill under the addition of BHT (2,6-Di-tert-butyl-4-methylphenol; CAS 128-37-0). The BHT was added as a powder to the polymer in the milling tube. Table 3. Milling conditions.
Perfluorinated carboxylic acids were extracted with MeOH and determined by LC/MS measurements as published in the 3M Standard test method for the determination of PFOA in articles of commerce. […]

The nature of data set [2]: Cryogenic grinding of perfluorinated elastomers (Spex mill), MeOH extraction and LC/MS determination of perfluorinated carboxylic acids. It counts as physicochemical. Conditions: 10 wt.-% BHT versus no radical scavenger.
From the text: as §1, §2
In this study the inhibition effect of radical scavengers on the generation of perfluorinated carboxylic acids during cryogenic grinding of PFE and PFE compounds was investigated. As example 1, PTFE 191 plus 10 wt.-% BHT as radical scavenger was used. The amount of BHT was added as a powder to the gum in the milling container. Comparative Example 1 was PTFE 191 without BHT or any other radical scavengers. […]
The perfluorinated carboxylic acids were determined by extraction of the grinded material with MeOH and subsequent LC/MS measurements. […]

For the compound `Cc1cc(C(C)(C)C)c(O)c(C(C)(C)C)c1` [BHT, 2,6-Di-tert-butyl-4-methylphenol], the “formation of C3-C7 Perfluorocarboxylic acids is reduced by a factor of” value in data set [1] was determined as 18. Further, the “lowers the PFOA formation” value in data set [2] is listed as “within three orders of magnitude”.
